# In PubChem BioAssay (NCI):
#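 Tested at 5 concentrations; 48 h exposure; 96-well plates; endpoints linearly interpolated, else capped at highest concentration. Abbreviation: GI50, concentration required for 50% inhibition of growth. The concentration for full growth arrest is given as TGI.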
# Columns and labels:
# Assay in all cases: inhibition of tumour cell growth, NCI panel, 48 h
# 786-0 renal = tested on: 786-0 renal
# A498 renal = tested on: A498 renal
# A549 NSCLC = tested on: A549 NSCLC
# ACHN renal = tested on: ACHN renal
# BT-549 breast = tested on: BT-549 breast
# CAKI-1 renal = tested on: CAKI-1 renal
# CCRF-CEM leukemia = tested on: CCRF-CEM leukemia
# COLO 205 colon = tested on: COLO 205 colon
# DU-145 prostate = tested on: DU-145 prostate
# EKVX NSCLC = tested on: EKVX NSCLC
# HCC-2998 colon = tested on: HCC-2998 colon
# HCT-116 colon = tested on: HCT-116 colon
# HCT-15 colon = tested on: HCT-15 colon
# HL-60(TB) leukemia = tested on: HL-60(TB) leukemia
# HOP-62 NSCLC = tested on: HOP-62 NSCLC
# HOP-92 NSCLC = tested on: HOP-92 NSCLC
# HS 578T breast = tested on: HS 578T breast
# HT29 colon = tested on: HT29 colon
# IGROV1 ovarian = tested on: IGROV1 ovarian
# K-562 leukemia = tested on: K-562 leukemia
# KM12 colon = tested on: KM12 colon
# LOX IMVI melanoma = tested on: LOX IMVI melanoma
# M14 melanoma = tested on: M14 melanoma
# MALME-3M melanoma = tested on: MALME-3M melanoma
# MCF7 breast = tested on: MCF7 breast
# MDA-MB-231 breast = tested on: MDA-MB-231 breast
# MDA-MB-435 = tested on: MDA-MB-435
# MDA-MB-468 breast = tested on: MDA-MB-468 breast
# MOLT-4 leukemia = tested on: MOLT-4 leukemia
# NCI-H226 lung = tested on: NCI-H226 lung
# NCI-H23 lung = tested on: NCI-H23 lung
# NCI-H460 lung = tested on: NCI-H460 lung
# NCI-H522 lung = tested on: NCI-H522 lung
# NCI/ADR-RES ovarian = tested on: NCI/ADR-RES ovarian
# OVCAR-3 ovarian = tested on: OVCAR-3 ovarian
# OVCAR-4 ovarian = tested on: OVCAR-4 ovarian
# OVCAR-5 ovarian = tested on: OVCAR-5 ovarian
# OVCAR-8 ovarian = tested on: OVCAR-8 ovarian
# PC-3 prostate = tested on: PC-3 prostate
# RPMI-8226 leukemia = tested on: RPMI-8226 leukemia
# RXF 393 renal = tested on: RXF 393 renal
# SF-268 CNS = tested on: SF-268 CNS
# SF-295 CNS = tested on: SF-295 CNS
# SF-539 CNS = tested on: SF-539 CNS
# SK-MEL-2 melanoma = tested on: SK-MEL-2 melanoma
# SK-MEL-28 melanoma = tested on: SK-MEL-28 melanoma
# SK-MEL-5 melanoma = tested on: SK-MEL-5 melanoma
# SK-OV-3 ovarian = tested on: SK-OV-3 ovarian
# SN12C renal = tested on: SN12C renal
# SNB-19 CNS = tested on: SNB-19 CNS
# SNB-75 CNS = tested on: SNB-75 CNS
# SR leukemia = tested on: SR leukemia
# SW-620 colon = tested on: SW-620 colon
# T-47D breast = tested on: T-47D breast
# TK-10 renal = tested on: TK-10 renal
# U251 CNS = tested on: U251 CNS
# UACC-257 melanoma = tested on: UACC-257 melanoma
# UACC-62 melanoma = tested on: UACC-62 melanoma
# UO-31 renal = tested on: UO-31 renal
smiles,measurement,setting,value
N#C/C(=C1/C(=O)Nc2ccccc21)c1nnc(NC(=O)c2ccc(-n3c(=O)[nH]c4ccccc4c3=O)cc2)s1,GI50,786-0 renal,> 100 µM
same,TGI,786-0 renal,> 100 µM
same,GI50,A498 renal,> 100 µM
same,TGI,A498 renal,> 100 µM
same,GI50,A549 NSCLC,54.7 µM
same,TGI,A549 NSCLC,> 100 µM
same,GI50,ACHN renal,53.8 µM
same,TGI,ACHN renal,> 100 µM
same,GI50,BT-549 breast,39.4 µM
same,TGI,BT-549 breast,> 100 µM
same,GI50,CAKI-1 renal,39 µM
same,TGI,CAKI-1 renal,> 100 µM
same,GI50,CCRF-CEM leukemia,22.2 µM
same,TGI,CCRF-CEM leukemia,64.5 µM
same,GI50,COLO 205 colon,22.1 µM
same,TGI,COLO 205 colon,79.8 µM
same,GI50,DU-145 prostate,53.6 µM
same,TGI,DU-145 prostate,> 100 µM
same,GI50,EKVX NSCLC,46.1 µM
same,TGI,EKVX NSCLC,> 100 µM
same,GI50,HCC-2998 colon,39.8 µM
same,TGI,HCC-2998 colon,> 100 µM
same,GI50,HCT-116 colon,32.6 µM
same,TGI,HCT-116 colon,> 100 µM
same,GI50,HCT-15 colon,27.3 µM
same,TGI,HCT-15 colon,> 100 µM
same,GI50,HL-60(TB) leukemia,13.6 µM
same,TGI,HL-60(TB) leukemia,45.4 µM
same,GI50,HOP-62 NSCLC,> 100 µM
same,TGI,HOP-62 NSCLC,> 100 µM
same,GI50,HOP-92 NSCLC,33.8 µM
same,TGI,HOP-92 NSCLC,> 100 µM
same,GI50,HS 578T breast,27.4 µM
same,TGI,HS 578T breast,> 100 µM
same,GI50,HT29 colon,31.7 µM
same,TGI,HT29 colon,> 100 µM
same,GI50,IGROV1 ovarian,40.5 µM
same,TGI,IGROV1 ovarian,> 100 µM
same,GI50,K-562 leukemia,26.1 µM
same,TGI,K-562 leukemia,> 100 µM
same,GI50,KM12 colon,33.4 µM
same,TGI,KM12 colon,> 100 µM
same,GI50,LOX IMVI melanoma,21.6 µM
same,TGI,LOX IMVI melanoma,> 100 µM
same,GI50,M14 melanoma,41.2 µM
same,TGI,M14 melanoma,> 100 µM
same,GI50,MALME-3M melanoma,45.6 µM
same,TGI,MALME-3M melanoma,> 100 µM
same,GI50,MCF7 breast,18.3 µM
same,TGI,MCF7 breast,> 100 µM
same,GI50,MDA-MB-231 breast,38.4 µM
same,TGI,MDA-MB-231 breast,> 100 µM
same,GI50,MDA-MB-435,17.2 µM
same,TGI,MDA-MB-435,35.8 µM
same,GI50,MDA-MB-468 breast,11 µM
same,TGI,MDA-MB-468 breast,56.1 µM
same,GI50,MOLT-4 leukemia,20.7 µM
same,TGI,MOLT-4 leukemia,60.9 µM
same,GI50,NCI-H226 lung,17.6 µM
same,TGI,NCI-H226 lung,> 100 µM
same,GI50,NCI-H23 lung,45.2 µM
same,TGI,NCI-H23 lung,> 100 µM
same,GI50,NCI-H460 lung,26 µM
same,TGI,NCI-H460 lung,> 100 µM
same,GI50,NCI-H522 lung,13.2 µM
same,TGI,NCI-H522 lung,71.7 µM
same,GI50,NCI/ADR-RES ovarian,33.8 µM
same,TGI,NCI/ADR-RES ovarian,> 100 µM
same,GI50,OVCAR-3 ovarian,10.9 µM
same,TGI,OVCAR-3 ovarian,71.6 µM
same,GI50,OVCAR-4 ovarian,23.1 µM
same,TGI,OVCAR-4 ovarian,> 100 µM
same,GI50,OVCAR-5 ovarian,> 100 µM
same,TGI,OVCAR-5 ovarian,> 100 µM
same,GI50,OVCAR-8 ovarian,67.6 µM
same,TGI,OVCAR-8 ovarian,> 100 µM
same,GI50,PC-3 prostate,30.3 µM
same,TGI,PC-3 prostate,> 100 µM
same,GI50,RPMI-8226 leukemia,27.1 µM
same,TGI,RPMI-8226 leukemia,> 100 µM
same,GI50,RXF 393 renal,14.5 µM
same,TGI,RXF 393 renal,> 100 µM
same,GI50,SF-268 CNS,34.9 µM
same,TGI,SF-268 CNS,> 100 µM
same,GI50,SF-295 CNS,45.9 µM
same,TGI,SF-295 CNS,> 100 µM
same,GI50,SF-539 CNS,48.3 µM
same,TGI,SF-539 CNS,> 100 µM
same,GI50,SK-MEL-2 melanoma,> 100 µM
same,TGI,SK-MEL-2 melanoma,> 100 µM
same,GI50,SK-MEL-28 melanoma,65.9 µM
same,TGI,SK-MEL-28 melanoma,> 100 µM
same,GI50,SK-MEL-5 melanoma,32.2 µM
same,TGI,SK-MEL-5 melanoma,> 100 µM
same,GI50,SK-OV-3 ovarian,> 100 µM
same,TGI,SK-OV-3 ovarian,> 100 µM
same,GI50,SN12C renal,58.3 µM
same,TGI,SN12C renal,> 100 µM
same,GI50,SNB-19 CNS,> 100 µM
same,TGI,SNB-19 CNS,> 100 µM
same,GI50,SNB-75 CNS,16.2 µM
same,TGI,SNB-75 CNS,> 100 µM
same,GI50,SR leukemia,33.1 µM
same,TGI,SR leukemia,> 100 µM
same,GI50,SW-620 colon,29.5 µM
same,TGI,SW-620 colon,> 100 µM
same,GI50,T-47D breast,11.2 µM
same,TGI,T-47D breast,> 100 µM
same,GI50,TK-10 renal,> 100 µM
same,TGI,TK-10 renal,> 100 µM
same,GI50,U251 CNS,> 100 µM
same,TGI,U251 CNS,> 100 µM
same,GI50,UACC-257 melanoma,46.2 µM
same,TGI,UACC-257 melanoma,> 100 µM
same,GI50,UACC-62 melanoma,47.4 µM
same,TGI,UACC-62 melanoma,> 100 µM
same,GI50,UO-31 renal,31.8 µM
same,TGI,UO-31 renal,> 100 µM
